{"source": "patent US20120142645A1", "about": "“NEUROACTIVE STEROID COMPOSITIONS AND METHODS OF USE FOR LOWERING CHOLESTEROL” (priority 2009, published 2012)", "key": {"[1]": {"tested_on": "patients with schizophrenia or schizoaffective disorder", "assay": "Psychiatric rating scales (PANSS, CGI, Calgary, SAS, BAS, AIMS, Quality of Life); same trial", "assay_type": "in vivo, human", "design": "CGI-S score / Calgary Depression Scale, difference PG vs placebo / Heinrich Carpenter subscore Interpersonal and social work, difference PG vs placebo / Heinrich Carpenter subscore Occupational role function, difference PG vs placebo / Heinrich Carpenter subscore Other residual symptoms, difference PG vs placebo: scale not given here", "conditions": "for Heinrich Carpenter Quality of Life Scale, difference PG vs placebo: not significant (p=0.32); for PANSS General subscore / PANSS Negative symptoms subscore / PANSS Positive symptoms subscore / PANSS total score: mean; for CGI-I score: Week 8 (final), 2=much improved, 3=minimally improved, n = 9", "procedure": "Study Design and Subjects. Disclosed herein is a placebo-controlled, double-blind, parallel group, randomized trial of adjunctive pregnenolone for the treatment of cognitive and negative symptoms in patients with schizophrenia or schizoaffective disorder. […] Patients received a total of 6 study visits, which took place every two weeks. […] The trial was conducted at a single site, the Durham Veterans Affairs Medical Center in Durham, N.C. The protocol was approved by the local institutional review board and conducted under FDA Investigational New Drug (IND) #71,768. The ClinicalTrials.gov number for this study is NCT00560937.\nDuring the screening visit (Visit 1), patients received a physical exam, vital signs, and electrocardiogram (EKG), as well as baseline laboratory measures consisting of serum electrolytes, glucose, creatinine, blood urea nitrogen (chemistry 7 panel), liver function tests, complete blood count (CBC), urinalysis, urine toxicology test, thyroid stimulating hormone (TSH), and prolactin, and serum pregnancy test if female. These tests were also repeated at the completion of the study (Visit 6). In addition, patients received an interim EKG 4 weeks post-randomization, as well as a serum pregnancy test if female (Visit 4). Patients also received a chemistry 7 panel, CBC, and liver function tests at Visits 2, 3, 4, and 5 (i.e., at all study visits). Psychiatric symptoms were assessed at baseline using the Scale for the Assessment of Negative Symptoms (Andreasen, 1983), the Positive and Negative Symptom Scale (PANSS; Kay et al., 1987), the Calgary Depression Rating Scale (CDRS; Addington et al., 1990), the Clinical Global Impressions Improvement (CGI-I) and Severity (CGI-S) scales, the Barnes Akathisia Scale (BAS; Barnes, 1989), the Simpson Angus Scale for Extrapyramidal Symptoms (SAS; Simpson & Angus, 1970), the Quality of Life Scale (QOL; Heinrichs et al., 1984), and the Hillside Side Effects Scale. One research nurse with five years of experience in the conduction of schizophrenia clinical trials completed both psychiatric and cognitive assessments throughout the study, and was trained to one point of divergence on each PANSS item."}, "[2]": {"tested_on": "subjects with mild traumatic brain injury (TBI)", "assay": "Total cholesterol in mild TBI subjects, pregnenolone 8 weeks (100, 300, then 500 mg/day oral) versus placebo", "assay_type": "in vivo, human", "conditions": "baseline to study completion (8 weeks), t-test of change scores p=0.035, FIG. 3", "from_the_text": "Ten (10) additional subjects with mild TBI were given a placebo."}, "humans": {"tested_on": "humans", "conditions": "cited from earlier work"}, "[3]": {"conditions": "Difference in changes from Week 0-8"}, "[4]": {"conditions": "Difference in changes from Week 0-8, points"}, "[5]": {"conditions": "Difference in changes from Week 0-8, points, listed as pregnenolone"}}, "note": "Values joined by “and” are separate entries in the source; they are usually repeats but may differ in a detail not shown here. Identical values can stand only once.", "data": [{"compound": "CC(=O)[C@H]1CC[C@H]2[C@@H]3CC=C4C[C@@H](O)CC[C@]4(C)[C@H]3CC[C@]12C", "note": "[PG, pregnenolone]", "values": [{"measurement": "CGI-S, change", "setting": "[1]; Changes from Week 0-8", "value": "−0.1"}, {"measurement": "Calgary Depression Scale, change", "setting": "[1]; Changes from Week 0-8, n = 7", "value": "−1.6"}, {"measurement": "AIMS, change", "setting": "[1]; Changes from Week 0-8, n = 8", "value": "−1.0"}, {"measurement": "Barnes Akathisia Scale, change", "setting": "[1]; Changes from Week 0-8, n = 8", "value": "−0.4"}, {"measurement": "Heinrich Carpenter Quality of Life Scale, change", "setting": "[1]; Changes from Week 0-8, n = 8", "value": 7.9}, {"measurement": "Heinrich Carpenter subscore Interpersonal and social work, change", "setting": "[1]; Changes from Week 0-8, n = 8", "value": 5.4}, {"measurement": "Heinrich Carpenter subscore Occupational role function, change", "setting": "[1]; Changes from Week 0-8, n = 8", "value": 0.9}, {"measurement": "Heinrich Carpenter subscore Other residual symptoms, change", "setting": "[1]; Changes from Week 0-8, n = 8", "value": 1.6}, {"measurement": "PANSS General, change", "setting": "[1]; Changes from Week 0-8, n = 8", "value": "−4.5"}, {"measurement": "PANSS Negative symptoms, change", "setting": "[1]; Changes from Week 0-8, n = 8", "value": "−2.8"}, {"measurement": "PANSS Positive symptoms, change", "setting": "[1]; Changes from Week 0-8, n = 8", "value": "−2.6"}, {"measurement": "PANSS total, change", "setting": "[1]; Changes from Week 0-8, n = 8", "value": "−9.9"}, {"measurement": "Simpson-Angus Scale, change", "setting": "[1]; Changes from Week 0-8, n = 8", "value": "−0.1"}, {"measurement": "AIMS, difference PG vs placebo", "setting": "[1]; [3]", "value": "−0.6 ± 0.7"}, {"measurement": "Calgary Depression Scale, difference PG vs placebo", "setting": "[1]; [3]", "value": "0.4 ± 1.6"}, {"measurement": "Heinrich Carpenter subscore Interpersonal and social work, difference PG vs placebo", "setting": "[1]; [3]", "value": "3.6 ± 3.2"}, {"measurement": "Heinrich Carpenter subscore Occupational role function, difference PG vs placebo", "setting": "[1]; [3]", "value": "0.8 ± 0.6"}, {"measurement": "Heinrich Carpenter subscore Other residual symptoms, difference PG vs placebo", "setting": "[1]; [3]", "value": "0.9 ± 2.2"}, {"measurement": "PANSS General, difference PG vs placebo", "setting": "[1]; [3]", "value": "−1.3 ± 2.1"}, {"measurement": "PANSS Positive symptoms, difference PG vs placebo", "setting": "[1]; [3]", "value": "−1.6 ± 0.8"}, {"measurement": "Simpson-Angus Scale, difference PG vs placebo", "setting": "[1]; [3]", "value": "−0.2 ± 0.4"}, {"measurement": "PANSS Negative symptoms, difference PG vs placebo", "setting": "[1]; [4]", "value": "−1.5 ± 1.4"}, {"measurement": "PANSS Negative symptoms, difference PG vs placebo", "setting": "[1]; [5]", "value": 1.53}, {"measurement": "PANSS total, difference PG vs placebo", "setting": "[1]; Difference in changes from Week 0-8, points, not significant (p=0.24)", "value": "−4.4 ± 3.6"}, {"measurement": "Heinrich Carpenter Quality of Life Scale, difference PG vs placebo", "setting": "[1]; [4]", "value": "5.3 ± 5.1"}, {"measurement": "Heinrich Carpenter Quality of Life Scale, difference PG vs placebo", "setting": "[1]; [5]", "value": "5.27±5.07 and 5.27"}, {"measurement": "AIMS score", "setting": "[1]; Week 0 (baseline)", "value": 1.6}, {"measurement": "Barnes Akathisia Scale score", "setting": "[1]; Week 0 (baseline)", "value": 0.4}, {"measurement": "CGI-S score", "setting": "[1]; Week 0 (baseline)", "value": 4.0}, {"measurement": "Calgary Depression Scale score", "setting": "[1]; Week 0 (baseline)", "value": 2.4}, {"measurement": "Heinrich Carpenter Quality of Life Scale score", "setting": "[1]; Week 0 (baseline)", "value": 47.5}, {"measurement": "Heinrich Carpenter subscore Interpersonal and social work", "setting": "[1]; Week 0 (baseline)", "value": 17.9}, {"measurement": "Heinrich Carpenter subscore Occupational role function", "setting": "[1]; Week 0 (baseline)", "value": 1.9}, {"measurement": "Heinrich Carpenter subscore Other residual symptoms", "setting": "[1]; Week 0 (baseline)", "value": 27.8}, {"measurement": "Simpson-Angus Scale score", "setting": "[1]; Week 0 (baseline)", "value": 1.0}, {"measurement": "CGI-S score", "setting": "[1]; Week 0 (baseline), listed as pregnenolone", "value": "4.00±0.50"}, {"measurement": "PANSS General subscore", "setting": "[1]; Week 0 (baseline)", "value": 35.5}, {"measurement": "PANSS Negative symptoms subscore", "setting": "[1]; Week 0 (baseline)", "value": 23.4}, {"measurement": "PANSS Positive symptoms subscore", "setting": "[1]; Week 0 (baseline)", "value": 13.6}, {"measurement": "PANSS total score", "setting": "[1]; Week 0 (baseline)", "value": 72.5}, {"measurement": "AIMS score", "setting": "[1]; Week 4", "value": 0.9}, {"measurement": "Barnes Akathisia Scale score", "setting": "[1]; Week 4", "value": 0.4}, {"measurement": "Simpson-Angus Scale score", "setting": "[1]; Week 4", "value": 1.3}, {"measurement": "PANSS General subscore", "setting": "[1]; Week 4", "value": 34.3}, {"measurement": "PANSS Negative symptoms subscore", "setting": "[1]; Week 4", "value": 23.2}, {"measurement": "PANSS Positive symptoms subscore", "setting": "[1]; Week 4", "value": 12.8}, {"measurement": "PANSS total score", "setting": "[1]; Week 4", "value": 67.9}, {"measurement": "AIMS score", "setting": "[1]; Week 8", "value": 0.6}, {"measurement": "Barnes Akathisia Scale score", "setting": "[1]; Week 8", "value": 0.0}, {"measurement": "Calgary Depression Scale score", "setting": "[1]; Week 8", "value": 0.9}, {"measurement": "Heinrich Carpenter Quality of Life Scale score", "setting": "[1]; Week 8", "value": 55.4}, {"measurement": "Heinrich Carpenter subscore Interpersonal and social work", "setting": "[1]; Week 8", "value": 23.3}, {"measurement": "Heinrich Carpenter subscore Occupational role function", "setting": "[1]; Week 8", "value": 2.8}, {"measurement": "Heinrich Carpenter subscore Other residual symptoms", "setting": "[1]; Week 8", "value": 29.4}, {"measurement": "Simpson-Angus Scale score", "setting": "[1]; Week 8", "value": 0.9}, {"measurement": "CGI-I score", "setting": "[1]", "value": 2.11}, {"measurement": "CGI-I score", "setting": "[1]; listed as pregnenolone", "value": "2.11±0.33 and 2.11"}, {"measurement": "CGI-S score", "setting": "[1]; Week 8 (post-treatment)", "value": 3.9}, {"measurement": "CGI-S score", "setting": "[1]; Week 8 (post-treatment), listed as pregnenolone", "value": "3.89±0.33"}, {"measurement": "PANSS General subscore", "setting": "[1]; Week 8", "value": 31.2}, {"measurement": "PANSS Negative symptoms subscore", "setting": "[1]; Week 8", "value": 20.6}, {"measurement": "PANSS Positive symptoms subscore", "setting": "[1]; Week 8", "value": 11.9}, {"measurement": "PANSS total score", "setting": "[1]; Week 8", "value": 63.6}, {"measurement": "Total cholesterol (percent change) compared to placebo", "setting": "[2]", "value": "statistically significant reduction"}, {"measurement": "Total cholesterol (percent change) compared to placebo", "setting": "[2]; listed as pregnenolone", "value": "reduced"}, {"measurement": "Tolerability in healthy volunteers", "setting": "humans; 15-30 mg/day, no significant side effects compared to placebo, Meieran et al., 2004", "value": "generally well-tolerated"}, {"measurement": "Safety and tolerability in humans", "setting": "humans; 25-500 mg/day, studies of the 1940s and 1950s", "value": "safe and well-tolerated"}]}]}
